Measurements reported in ChEMBL document CHEMBL1201862, “PubChem BioAssay data set” (2004).
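All cell lines were grown in 96-well plates and treated with compound for 48 hours. At the GI50, growth is halved.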 Calls of active or inactive are those of the source. Rule as the data show it: active = GI50 up to about 1.1 µM and inactive = higher.

How the values were obtained:
Assay in all cases: NCI anticancer screen, dose series, 48 h
SF-295 = test system: SF-295
IGROV-1 = test system: IGROV-1
HCT-116 = test system: HCT-116
SK-MEL-28 = test system: SK-MEL-28
K562 = test system: K562
SW-620 = test system: SW-620
RXF 393 = test system: RXF 393
KM12 = test system: KM12
OVCAR-4 = test system: OVCAR-4
MCF7 = test system: MCF7
DU-145 = test system: DU-145
NCI-H226 = test system: NCI-H226
TK-10 = test system: TK-10
HCC 2998 = test system: HCC 2998
786-0 = test system: 786-0
OVCAR-5 = test system: OVCAR-5
ACHN = test system: ACHN
SNB-75 = test system: SNB-75
UO-31 = test system: UO-31

Measured: GI50

Cc1ccc(-c2cc(-c3c(C)nn(C)c(=O)c3N)n[nH]2)cc1
inactive: SF-295 > 100 µM | IGROV-1 > 100 µM | HCT-116 > 100 µM | SK-MEL-28 > 100 µM | K562 > 100 µM | SW-620 > 100 µM | RXF 393 > 100 µM | KM12 > 100 µM | OVCAR-4 > 100 µM | MCF7 > 100 µM | DU-145 > 100 µM | NCI-H226 > 100 µM | TK-10 > 100 µM | HCC 2998 > 100 µM | 786-0 > 100 µM | OVCAR-5 > 100 µM | ACHN > 100 µM

CCNCCC1(CC)C(=O)NC(=O)NC1=O
inactive: SF-295 > 100 µM | IGROV-1 > 100 µM | HCT-116 > 100 µM | SK-MEL-28 > 100 µM | K562 > 100 µM | SW-620 > 100 µM | SNB-75 > 100 µM | RXF 393 > 100 µM | KM12 > 100 µM | OVCAR-4 > 100 µM | MCF7 > 100 µM | DU-145 > 100 µM | NCI-H226 > 100 µM | TK-10 > 100 µM | 786-0 > 100 µM | UO-31 > 100 µM | OVCAR-5 > 100 µM | ACHN > 100 µM

O=C1CSC(c2cccc(Oc3ccccc3)c2)N1c1ccc(Cl)cc1 (stereo not given)
inactive: SF-295 31 µM | HCT-116 13.6 µM | SK-MEL-28 41.2 µM | K562 15.7 µM | SW-620 33.6 µM | SNB-75 28 µM | RXF 393 20.4 µM | KM12 21.3 µM | OVCAR-4 26.2 µM | MCF7 15.3 µM | DU-145 52.2 µM | NCI-H226 32.8 µM | TK-10 22.4 µM | 786-0 31.8 µM | UO-31 34.5 µM | OVCAR-5 65.5 µM | ACHN 26.1 µM

O=C1[C@H](Cl)[C@H]2c3cc4ccccc4nc3Oc3ccccc3N12
inactive: SF-295 21.8 µM | IGROV-1 32.7 µM | HCT-116 17.2 µM | SK-MEL-28 33 µM | K562 > 10 µM | SW-620 > 100 µM | SNB-75 1.4 µM | KM12 33.3 µM | OVCAR-4 45.5 µM | NCI-H226 75.9 µM | TK-10 > 100 µM | HCC 2998 39.4 µM | 786-0 36.8 µM | UO-31 14.9 µM | OVCAR-5 67.3 µM | ACHN 28.4 µM

CNC(=O)Nn1c(SC)nc2ccccc21
inactive: SF-295 > 100 µM | IGROV-1 > 100 µM | HCT-116 > 100 µM | SK-MEL-28 > 100 µM | K562 > 100 µM | SW-620 > 100 µM | RXF 393 > 100 µM | KM12 > 100 µM | OVCAR-4 > 100 µM | MCF7 > 100 µM | DU-145 > 100 µM | NCI-H226 > 100 µM | TK-10 > 100 µM | HCC 2998 > 100 µM | 786-0 > 100 µM | UO-31 > 100 µM | OVCAR-5 > 100 µM | ACHN > 100 µM

COC(=O)/C=C\[C@H]1[C@H](C)N1S(=O)(=O)c1ccc(C)cc1 (stereo not given in full)
inactive: SF-295 > 100 µM | IGROV-1 > 100 µM | HCT-116 > 100 µM | SK-MEL-28 > 100 µM | K562 > 100 µM | SW-620 > 100 µM | RXF 393 > 100 µM | KM12 > 100 µM | OVCAR-4 > 100 µM | MCF7 > 100 µM | DU-145 > 100 µM | NCI-H226 > 100 µM | TK-10 > 100 µM | HCC 2998 > 100 µM | 786-0 > 100 µM | OVCAR-5 > 100 µM | ACHN > 100 µM

CN(C)CC(CN(C)C)c1ccccn1
inactive: SF-295 > 100 µM | IGROV-1 > 100 µM | HCT-116 > 100 µM | SK-MEL-28 > 100 µM | K562 > 100 µM | SW-620 > 100 µM | RXF 393 > 100 µM | KM12 > 100 µM | OVCAR-4 > 100 µM | MCF7 > 100 µM | NCI-H226 > 100 µM | TK-10 > 100 µM | 786-0 > 100 µM | UO-31 > 100 µM | OVCAR-5 > 100 µM | ACHN > 100 µM

CCN(CC)c1nc(N(C)C)c2ccc(OC)cc2n1
inactive: SF-295 17.2 µM | IGROV-1 23.2 µM | HCT-116 4.35 µM | SK-MEL-28 12.5 µM | K562 14 µM | SW-620 7.08 µM | SNB-75 15.6 µM | RXF 393 13.6 µM | KM12 14.7 µM | OVCAR-4 25.8 µM | MCF7 10.9 µM | NCI-H226 14.2 µM | TK-10 24.5 µM | HCC 2998 11.6 µM | 786-0 17.5 µM | OVCAR-5 16.7 µM | ACHN 12.5 µM

Oc1c(Cl)c(Cl)c(O)c2c1CCCC2
inactive: SF-295 18.5 µM | HCT-116 1.51 µM | SK-MEL-28 13.6 µM | SW-620 1.99 µM | RXF 393 10.6 µM | KM12 12.4 µM | MCF7 2.13 µM | NCI-H226 1.88 µM | TK-10 3.37 µM | HCC 2998 14.3 µM | 786-0 1.93 µM | UO-31 2.36 µM | ACHN 1.75 µM

O=Cc1ccc(-c2ccc(S(=O)(=O)O)cc2)o1
inactive: SF-295 > 100 µM | IGROV-1 > 100 µM | HCT-116 > 100 µM | SK-MEL-28 > 100 µM | K562 > 100 µM | SW-620 > 100 µM | RXF 393 > 100 µM | KM12 > 100 µM | MCF7 > 100 µM | DU-145 > 100 µM | NCI-H226 > 100 µM | TK-10 > 100 µM | HCC 2998 > 100 µM | 786-0 > 100 µM | UO-31 > 100 µM | OVCAR-5 > 100 µM | ACHN > 100 µM

CC(=O)[C@@]1(C)CC2(CCN(C)CC2)OC1C (stereo not given in full)
inactive: SF-295 > 100 µM | IGROV-1 > 100 µM | HCT-116 > 100 µM | SK-MEL-28 > 100 µM | K562 > 100 µM | SW-620 > 100 µM | SNB-75 > 100 µM | RXF 393 > 100 µM | KM12 > 100 µM | OVCAR-4 > 100 µM | DU-145 > 100 µM | NCI-H226 > 100 µM | TK-10 > 100 µM | 786-0 > 100 µM | UO-31 > 100 µM | OVCAR-5 > 100 µM | ACHN > 100 µM

CCOC(=O)/C=C1\c2ccccc2C(=O)N1CC(=O)OCC
inactive: SF-295 > 100 µM | IGROV-1 > 100 µM | HCT-116 > 100 µM | SK-MEL-28 > 100 µM | K562 > 100 µM | SW-620 > 100 µM | SNB-75 77.1 µM | RXF 393 > 100 µM | KM12 > 100 µM | OVCAR-4 > 100 µM | DU-145 > 100 µM | NCI-H226 > 100 µM | TK-10 > 100 µM | 786-0 > 100 µM | UO-31 > 100 µM | OVCAR-5 > 100 µM | ACHN > 100 µM

Cc1n[nH]c(=S)n1/N=C/c1ccc(-c2ccc(Cl)cc2)o1
inactive: SF-295 67.8 µM | IGROV-1 > 100 µM | HCT-116 > 100 µM | SK-MEL-28 > 100 µM | K562 > 100 µM | SW-620 > 100 µM | SNB-75 31.9 µM | RXF 393 43 µM | KM12 > 100 µM | OVCAR-4 > 100 µM | MCF7 > 100 µM | DU-145 > 100 µM | NCI-H226 > 100 µM | TK-10 83.4 µM | 786-0 > 100 µM | UO-31 > 100 µM | OVCAR-5 > 100 µM | ACHN 63.7 µM

Cc1oc2nc(N(C)C)nc(NN)c2c1C
inactive: SF-295 > 100 µM | IGROV-1 > 100 µM | HCT-116 > 100 µM | SK-MEL-28 > 100 µM | K562 > 100 µM | SW-620 > 100 µM | SNB-75 > 100 µM | RXF 393 > 100 µM | KM12 > 100 µM | OVCAR-4 > 100 µM | DU-145 > 100 µM | NCI-H226 > 100 µM | TK-10 > 100 µM | HCC 2998 > 100 µM | 786-0 > 100 µM | UO-31 61.7 µM | OVCAR-5 > 100 µM | ACHN > 100 µM

Cc1ccc(-n2cc(-c3ccc(Cl)cc3)c3c(N/N=C4\SCC(=O)N4C)ncnc32)cc1
inactive: SF-295 2.67 µM | IGROV-1 14.8 µM | HCT-116 4.59 µM | SK-MEL-28 2.44 µM | K562 5 µM | SW-620 16.3 µM | RXF 393 7.18 µM | KM12 7.96 µM | OVCAR-4 2.48 µM | DU-145 > 100 µM | NCI-H226 7.35 µM | TK-10 2.64 µM | 786-0 3.39 µM | UO-31 46.3 µM | OVCAR-5 45.4 µM | ACHN 7.36 µM

COC(=O)/C=C(\C(=O)OC)C1C(=O)Oc2c(C)c(=O)c3ccccc3n21 (stereo not given)
inactive: SF-295 > 100 µM | IGROV-1 > 100 µM | HCT-116 > 100 µM | SK-MEL-28 > 100 µM | K562 > 100 µM | SW-620 > 100 µM | SNB-75 > 100 µM | RXF 393 > 100 µM | KM12 > 100 µM | OVCAR-4 > 100 µM | MCF7 > 100 µM | DU-145 > 100 µM | NCI-H226 > 100 µM | TK-10 > 100 µM | 786-0 > 100 µM

COc1ccc2c(CC(=O)O)cc(=O)oc2c1
inactive: SF-295 > 100 µM | IGROV-1 > 100 µM | HCT-116 > 100 µM | SK-MEL-28 > 100 µM | K562 > 100 µM | SW-620 > 100 µM | RXF 393 > 100 µM | KM12 > 100 µM | OVCAR-4 > 100 µM | MCF7 > 100 µM | DU-145 > 100 µM | NCI-H226 > 100 µM | TK-10 > 100 µM | HCC 2998 > 100 µM | 786-0 > 100 µM | UO-31 > 100 µM | OVCAR-5 > 100 µM | ACHN > 100 µM
